System: 996289-038-R-J1-PDC spheroid viability
Assay: Anticancer human tumor 996289-038-R-J1-PDC patient-derived colon adenocarcinoma cell line growth inhibition [PI3K]
Settings: spheroids with HUVEC and MSC; for IC50: curve of first compound; for viability, T/C: stronger effect = lower value
Outline: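 Viability of mixed-cell spheroids was determined after exposure to pairwise combinations, one partner being inavolisib, alpelisib, duvelisib or copanlisib. Highest tested concentration matched clinical Cmax where known and 10 microM where not, descending in half-log steps.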

[1] = second compound 0.0316 µM, first compound 0.0316 µM
[2] = second compound 0.0316 µM, first compound 0.1 µM
[3] = second compound 0.0316 µM, first compound 0.316 µM
[4] = second compound 0.0316 µM, first compound 1 µM
[5] = second compound 0.1 µM, first compound 0.0316 µM
[6] = second compound 0.1 µM, first compound 0.1 µM
[7] = second compound 0.1 µM, first compound 0.316 µM
[8] = second compound 0.1 µM, first compound 1 µM
[9] = second compound 0.316 µM, first compound 0.0316 µM
[10] = second compound 0.316 µM, first compound 0.1 µM
[11] = second compound 0.316 µM, first compound 0.316 µM
[12] = second compound 0.316 µM, first compound 1 µM
[13] = second compound 1 µM, first compound 0.0316 µM
[14] = second compound 1 µM, first compound 0.1 µM
[15] = second compound 1 µM, first compound 0.316 µM
[16] = second compound 1 µM, first compound 1 µM
[17] = second compound 0.0316 µM, first compound 3.16 µM
[18] = second compound 0.0316 µM, first compound 10 µM
[19] = second compound 0.1 µM, first compound 3.16 µM
[20] = second compound 0.1 µM, first compound 10 µM
[21] = second compound 0.316 µM, first compound 3.16 µM
[22] = second compound 0.316 µM, first compound 10 µM
[23] = second compound 1 µM, first compound 3.16 µM
[24] = second compound 1 µM, first compound 10 µM
[25] = second compound 3.16 µM, first compound 0.0316 µM
[26] = second compound 3.16 µM, first compound 0.1 µM
[27] = second compound 3.16 µM, first compound 0.316 µM
[28] = second compound 3.16 µM, first compound 1 µM
[29] = second compound 3.16 µM, first compound 3.16 µM
[30] = second compound 3.16 µM, first compound 10 µM
[31] = second compound 10 µM, first compound 0.0316 µM
[32] = second compound 10 µM, first compound 0.1 µM
[33] = second compound 10 µM, first compound 0.316 µM
[34] = second compound 10 µM, first compound 1 µM
[35] = second compound 10 µM, first compound 3.16 µM
[36] = second compound 10 µM, first compound 10 µM
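Further: spheroids exposed to compounds for seven days before viability read.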
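Wherever viability, T/C is given: luminescence used as a proxy for viable cell amount; percent viability relative to DMSO vehicle control as 100%.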

With `CCN1CCN(Cc2ccc(Nc3ncc(F)c(-c4cc(F)c5nc(C)n(C(C)C)c5c4)n3)nc2)CC1` + CC(Nc1ccc2c(c1)OCCn1cc(N3C(=O)OCC3C(F)F)nc1-2)C(N)=O the IC50 (second compound 0.00316 µM) was > 1 µM, the IC50 (second compound 0.01 µM) was > 1 µM and the IC50 (second compound 0.0316 µM) was > 1 µM. For the same molecule, the IC50 (second compound 0.1 µM) was > 1 µM, the IC50 (second compound 0.316 µM) was 0.772 µM and the IC50 (second compound 1 µM) was 0.0538 µM. The viability, T/C (second compound 0.00316 µM, first compound 0.00316 µM) was 97.1%, the viability, T/C (second compound 0.00316 µM, first compound 0.01 µM) was 93.1% and the viability, T/C (second compound 0.00316 µM, first compound 0.0316 µM) was 93.2%. The viability, T/C (second compound 0.00316 µM, first compound 0.1 µM) was 84.8%, the viability, T/C (second compound 0.00316 µM, first compound 0.316 µM) was 76.9% and the viability, T/C (second compound 0.00316 µM, first compound 1 µM) was 78.3%. For the same molecule, the viability, T/C (second compound 0.01 µM, first compound 0.00316 µM) was 98.5%, the viability, T/C (second compound 0.01 µM, first compound 0.01 µM) was 98.9% and the viability, T/C (second compound 0.01 µM, first compound 0.0316 µM) was 83.2%. It also gave a viability, T/C (second compound 0.01 µM, first compound 0.1 µM) of 75.8%, a viability, T/C (second compound 0.01 µM, first compound 0.316 µM) of 82.9% and a viability, T/C (second compound 0.01 µM, first compound 1 µM) of 82.8%. For the same molecule, the viability, T/C (second compound 0.0316 µM, first compound 0.00316 µM) was 94.9%, the viability, T/C (second compound 0.0316 µM, first compound 0.01 µM) was 83.2% and the viability, T/C [1] was 78.9%. For the same molecule, the viability, T/C [2] was 69.8%, the viability, T/C [3] was 79.8% and the viability, T/C [4] was 67.5%. It also gave a viability, T/C (second compound 0.1 µM, first compound 0.00316 µM) of 78.6%, a viability, T/C (second compound 0.1 µM, first compound 0.01 µM) of 75.1% and a viability, T/C [5] of 74.7%. For the same molecule, the viability, T/C [6] was 66.1%, the viability, T/C [7] was 61.3% and the viability, T/C [8] was 65.8%. For the same molecule, the viability, T/C (second compound 0.316 µM, first compound 0.00316 µM) was 71.3%, the viability, T/C (second compound 0.316 µM, first compound 0.01 µM) was 73.9% and the viability, T/C [9] was 64.3%. The viability, T/C [10] was 54.7%, the viability, T/C [11] was 57.3% and the viability, T/C [12] was 48.4%. For the same molecule, the viability, T/C (second compound 1 µM, first compound 0.00316 µM) was 53.7%, the viability, T/C (second compound 1 µM, first compound 0.01 µM) was 53.2% and the viability, T/C [13] was 52.6%. For the same molecule, the viability, T/C [14] was 47.4%, the viability, T/C [15] was 46.4% and the viability, T/C [16] was 45%.
`CC1(C)CCC(Nc2ncc(C(F)(F)F)c(-c3c[nH]c4c(P(C)(C)=O)c(C#N)ccc34)n2)CN1` (stereo unspecified) + Cc1nc(NC(=O)N2CCCC2C(N)=O)sc1-c1ccnc(C(C)(C)C(F)(F)F)c1 was tested, and the IC50 (second compound 0.0316 µM) was 6.45 µM, the IC50 (second compound 0.1 µM) was 6.7 µM and the IC50 (second compound 0.316 µM) was 5.83 µM. The IC50 (second compound 1 µM) was 4.92 µM, the IC50 (second compound 3.16 µM) was 3.62 µM and the IC50 (second compound 10 µM) was < 0.0316 µM. The viability, T/C [1] was 103%, the viability, T/C [2] was 86.8% and the viability, T/C [3] was 75.6%. The viability, T/C [4] was 90.1%, the viability, T/C [17] was 92.2% and the viability, T/C [18] was 25.6%. The viability, T/C [5] was 89.9%, the viability, T/C [6] was 74.1% and the viability, T/C [7] was 88.2%. For the same molecule, the viability, T/C [8] was 85%, the viability, T/C [19] was 91.3% and the viability, T/C [20] was 30.8%. For the same molecule, the viability, T/C [9] was 75.5%, the viability, T/C [10] was 78% and the viability, T/C [11] was 85.8%. The viability, T/C [12] was 79%, the viability, T/C [21] was 80.2% and the viability, T/C [22] was 24%. It also gave a viability, T/C [13] of 75%, a viability, T/C [14] of 70% and a viability, T/C [15] of 70.8%. The viability, T/C [16] was 69.7%, the viability, T/C [23] was 68.1% and the viability, T/C [24] was 21.4%. For the same molecule, the viability, T/C [25] was 62.5%, the viability, T/C [26] was 57.9% and the viability, T/C [27] was 55.9%. The viability, T/C [28] was 58.7%, the viability, T/C [29] was 55% and the viability, T/C [30] was 13.1%. For the same molecule, the viability, T/C [31] was 41.9%, the viability, T/C [32] was 46% and the viability, T/C [33] was 41.7%. The viability, T/C [34] was 38.8%, the viability, T/C [35] was 36.9% and the viability, T/C [36] was 10.2%.
`C#Cc1c(F)ccc2cc(O)cc(-c3ncc4c(N5CC6CCC(C5)N6)nc(OCC56CCCN5CC(F)C6)nc4c3F)c12` (stereo unspecified) + Cc1nc(NC(=O)N2CCCC2C(N)=O)sc1-c1ccnc(C(C)(C)C(F)(F)F)c1 gave an IC50 (second compound 0.0316 µM) of 1.67 µM, an IC50 (second compound 0.1 µM) of 0.61 µM and an IC50 (second compound 0.316 µM) of 0.291 µM. The IC50 (second compound 1 µM) was 0.156 µM, the IC50 (second compound 3.16 µM) was 0.0777 µM and the IC50 (second compound 10 µM) was < 0.0316 µM. The viability, T/C [1] was 80.9%, the viability, T/C [2] was 77.1% and the viability, T/C [3] was 66.6%. The viability, T/C [4] was 53.9%, the viability, T/C [17] was 45.4% and the viability, T/C [18] was 40.2%. It also gave a viability, T/C [5] of 94.4%, a viability, T/C [6] of 78.5% and a viability, T/C [7] of 55.6%. It also gave a viability, T/C [8] of 45.1%, a viability, T/C [19] of 39.6% and a viability, T/C [20] of 33.4%. For the same molecule, the viability, T/C [9] was 72.9%, the viability, T/C [10] was 55% and the viability, T/C [11] was 50.8%. It also gave a viability, T/C [12] of 40.1%, a viability, T/C [21] of 37.8% and a viability, T/C [22] of 27.8%. It also gave a viability, T/C [13] of 65.5%, a viability, T/C [14] of 54.8% and a viability, T/C [15] of 42.6%. For the same molecule, the viability, T/C [16] was 33.2%, the viability, T/C [23] was 27.8% and the viability, T/C [24] was 23.4%. It also gave a viability, T/C [25] of 64%, a viability, T/C [26] of 47.2% and a viability, T/C [27] of 30.5%. It also gave a viability, T/C [28] of 26.8%, a viability, T/C [29] of 23.3% and a viability, T/C [30] of 16.9%. It also gave a viability, T/C [31] of 37.6%, a viability, T/C [32] of 35.6% and a viability, T/C [33] of 22.2%. It also gave a viability, T/C [34] of 16.7%, a viability, T/C [35] of 14.5% and a viability, T/C [36] of 6.74%.
